Results: US8575359B2, “Acid-sensitive linkers for drug delivery” (The Regents of the University of California, priority 2006, dated 2013)
Like-named read-outs stand apart in the source and are kept apart here.

Tested on: human ovarian carcinoma 2008 cells
Experiment: Cytotoxicity (colony formation assay) on human ovarian carcinoma 2008 cells
Assay type: cell-based
Method: Cells were exposed to various concentrations of 10 for 1 hour and survival was determined after a further […] period of growth in drug-free medium.
Human ovarian carcinoma 2008 cells were plated in 6-well plates at a density of 200 cells in 3 mL of media (RPMI-1640+10% Fetal Bovine Serum) per well and incubated overnight to allow the cells to adhere to the bottom of the wells. After overnight incubation the media was removed from each well and fresh growth media containing different concentrations of 10 was added to the wells. The cells were incubated for 1 hour in the presence of 10. Following the removal of the solutions containing 10, the cells were incubated with fresh media for […] to allow surviving cells to form colonies. […] Clusters containing >50 cells were scored as colonies using an AlphaInontech Imager. The colony formation assay was performed in triplicate on 3 independent occasions.
Chem. Int. Ed. 2004, 43, 739-742. Norrisolide Core (5, 11 μmol) was dissolved in 0.5 mL of dichloromethane (DCM). 4-carboxybenzaldehye (19 μmol), N,N′-dicyclohexylcarbodiimide (DCC, 19 μmol) and Dimethylaminopyridine (DMAP, 1 crystal) was added and stirred overnight at 23° C.

[1] = Table 3, human ovarian carcinoma 2008 cells, read-out: IC50
[2] = human ovarian carcinoma 2008 cells, relative to compound 10

| Compound | IC50 [1] | other results |
| --- | --- | --- |
| CCOC(c1ccccc1)n1ccnc1 (stereo not drawn) [Compound 1, N-ethoxybenzylimidazole] | 0.01 µM | – |
| CCOC(c1ccc(Br)cc1)n1ccnc1 (stereo not drawn) [Compound 2] | 9 µM | – |
| CCOC(c1ccc([N+](=O)[O-])cc1)n1ccnc1 (stereo not drawn) [Compound 3] | 0.1 µM | – |
| CCCCc1ccc(C(OCC)n2ccnc2)cc1 (stereo not drawn) [Compound 4] | 0.25 µM | – |
| CCOC(c1ccccc1Br)n1ccnc1 (stereo not drawn) [Compound 5] | 52 µM | – |
| CCOC(c1ccccc1OC)n1ccnc1 (stereo not drawn) [Compound 6] | 55 µM | – |
| COc1cccc2c1C(=O)c1c(O)c3c(c(O)c1C2=O)C[C@@](O)(C(=O)CO)C[C@@H]3O[C@H]1C[C@H](NC(=O)c2ccc(C=O)cc2)[C@H](O)[C@H](C)O1 [Compound 10, N-(4-formylbenzoyl)doxorubicin] | – | IC50 (1 hour exposure, colony formation, read-out: IC50 against human ovarian carcinoma 2008 cells): ~12 µM |
| COc1cccc2c1C(=O)c1c(O)c3c(c(O)c1C2=O)C[C@@](O)(C(=O)CO)C[C@@H]3O[C@H]1C[C@H](N)[C@H](O)[C@H](C)O1 [doxorubicin, Doxorubicin, reference compound] | – | IC50 fold lower than that of 10 [2]: > 10 fold |
| N-ethoxybenzylimidazole-doxorubicin Conjugate [Compound 9] | – | IC50 fold higher than that of 10 [2]: 2 fold |
